Data as given in EP1935986B1, “Luminogenic and fluorogenic compounds and methods to detect molecules or conditions” (priority 2005, dated 2006).
Values joined by “and” are separate entries in the source; they are usually repeats but may differ in a detail not shown here. Equal values may be shown once.

What was measured:
[1] = tested on: thermostable luciferase (Luc 146-1H2); experiment: Thermostable luciferase reaction with luciferin derivatives: light readings; format: biochemical; settings: 100 µM each; result in words
Protocol: This stock was used to produce enzyme stock solution having of 200 µg/ml enzyme solution in 1 mg/ml BSA, 200 mM HEPES buffer, pH 8.0, 20 mM MgCl2.
Solutions were made using a 1 M DTT solution, pH adjusted to 8.0, a 20 mM Coenzyme A solution in water (both described in examples above), a 100 mM ATP solution and water to create the following solutions: Sol'A, 100 µM ATP; Sol'B, 100 µM ATP, 4 mM Coenzyme A; Sol'n C, 100 µM ATP, 400 mM DTT, and; Sol'n D, 100 µM ATP, 4 mM Coenzyme A and 400 mM DTT.
The following reactions were prepared (Table 47) Table 47
After assembly, the reactions were initiated by addition of 25 µl of the thermostable luciferase stock solution above and mixing the tube contents. A 50 µl sample was immediately removed and placed in a luminometer tube and the light read and the tube then replaced in a tube rack at room temperature. While the light reading was being taken, a 5 µl sample of the remaining reaction (which was kept at room temperature) was diluted into 495 µl of 50 mM BisTris, pH 6.5, 1 mg/ml BSA, 1 mM EDTA prechilled to 4°C and the tube mixed and placed on ice. The light produced by the samples in the luminometer tubes were re-read at 20, 40, 60, 90 and 120 minutes post enzyme addition. Additional 5 µl samples were taken and diluted as above at 60 and 120 minutes post enzyme addition. Once all these readings and samples were taken, 50 µl of the diluted samples was mixed with 50 µl of Steady Glo in luminometer tubes, the tubes incubated 10 minutes on ice then the light produced was read on a Turner TD 20/20 luminometer.

luciferase = experiment: No-enzyme control: activity of luciferase towards the luciferin derivative (background luminescence)
Protocol: The reactions (Table 1) were assembled by first adding the water and 1 M BisTris solutions in individual 0.5 ml microfuge tubes, then adding the other components except for the GST #3 solution. Finally, the GST #3 (Figure 12) solution was added to the reactions, the resulting solution was mixed, and the time of addition noted. […]
The GST #3 addition was performed last and the solutions were mixed immediately after addition of GST #3. […] After mixing, the light produced by the solution was measured using a Turner TD 20/20 luminometer.
After assembly, the enzyme stock solutions were diluted 1:10 into 10 mM HEPES, pH 7.5 and the following additions were made to the reactions.
A 5 µl sample of the luciferol DMF solution was added to each of the reactions above and a timer was started upon the addition of the first luciferol/DMF solution to reaction 1. All reactions were kept at room temperature.
After incubating 5 minutes at room temperature, the light produced by these samples was measured using a Turner TD 20 luminometer.
To initiate the conversions, 5 µl of luciferol solution was added to reactions […], 6-9, and 11-15, and 10 µl of luciferol was added to reactions 5 and 10 and the tubes mixed after that addition. Immediately after luciferol addition to reaction 1, a timer was started and the time of luciferol addition to the other tubes noted. After mixing, reaction 11-15 were placed at 37°C.
After incubating 10 minutes at room temperature, the light produced by these samples was read using a Turner TD 20 luminometer (Table 18).
To initiate Step 1, 45 µl of enzyme and buffer were added to each well.
Solution A and Solution B are components of the NADPH Regeneration System (V9510, Promega Corp., Madison WI). […] Solution B contains 40 units/ml glucose-6-phosphate dehydrogenase in 5 mM citrate pH 5.5.

QuantiLum Luciferase = molecular target: T1, QuantiLum Luciferase (Photinus pyralis, UniProt P08659); experiment: Scaffolds: light emission of luciferin derivatives with QuantiLum luciferase alone, + Co A, + DTT, + Co A and DTT; format: biochemical, firefly
T1 construct: purchased Promega Corporation E170
T1 sequence (P08659 whole entry): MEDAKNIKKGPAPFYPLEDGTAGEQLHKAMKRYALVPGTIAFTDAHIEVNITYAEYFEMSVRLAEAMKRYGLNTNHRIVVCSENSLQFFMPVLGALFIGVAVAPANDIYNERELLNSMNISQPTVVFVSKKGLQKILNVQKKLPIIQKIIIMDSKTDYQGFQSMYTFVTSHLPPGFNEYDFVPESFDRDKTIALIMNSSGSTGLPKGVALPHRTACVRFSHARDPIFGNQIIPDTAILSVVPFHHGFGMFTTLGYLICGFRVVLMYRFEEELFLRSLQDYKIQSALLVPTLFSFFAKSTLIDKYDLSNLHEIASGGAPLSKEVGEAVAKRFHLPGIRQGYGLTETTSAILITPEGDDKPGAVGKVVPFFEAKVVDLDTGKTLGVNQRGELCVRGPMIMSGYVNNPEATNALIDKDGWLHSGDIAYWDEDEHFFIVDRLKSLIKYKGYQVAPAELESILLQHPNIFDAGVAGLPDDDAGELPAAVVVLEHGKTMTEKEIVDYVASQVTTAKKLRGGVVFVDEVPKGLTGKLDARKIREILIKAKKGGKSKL
Protocol: The DTT, Coenzyme A, and QuantiLum stock solutions are the same as those described herein.
This solution was diluted 1:1 with water to produce an enzyme solution labeled "No addition." This solution was diluted 1:1 with 400 mM DTT, pH 8.0 to produce a solution labeled +DTT. This solution was diluted 1:1 with 4 mM Coenzyme A to produce a solution labeled + Co A. Finally, this solution was diluted 1:1 with a solution having both 4 mM Coenzyme A and 400 mM DTT to produce a solution labeled +Co A & DTT.
50 µl samples of these solutions were placed in the wells of luminometer microtiter plates, row A to row G, respeutivly. Row H of the plates was given 50 µl of water.
Reactions in these plates were initiated by addition of 50 µl of solution containing QuantiLum luciferase using a 12 channel micropipette. The solutions added to the rows were: columns 1, 5, and 9 - no addition solution; columns 2, 6, and 10 - + Co A solution; columns 3, 7, and 11 + DTT solution, and; columns 4, 8, and 12 - + Co A and DTT solution. After addition of the enzyme solution to the first row on every plate, a timer was started. After addition of the enzyme solution to the last row on each plate, the plate was sealed and read on a Veritas luminometer.

For CN(C)c1ccc2nc(C3=NC(C(=O)O)CS3)sc2c1 (stereo not shown) [dimethyl amino luciferin], the “brightness of luciferase reaction relative to amino luciferin” value [1] was “about half as bright”.
In the case of OC[C@H]1CSC(c2nc3ccc(O)cc3s2)=N1 [luciferol], the light produced (luciferase; Table 18 Rx 1: no enzyme, KPO4 pH 7.4, room temperature, 30/60/95/190/280 minutes) is reported as 6.077 and 6.091 and 5.849 and 4.364 and 7.694 and the light produced (luciferase; Table 18 Rx 11: no enzyme, 37°C, time) is reported as 5.814 and 6.078 and 6.302 and 6.889 and 8.399.
CN(Cc1ccccc1)c1ccc2nc(C3=NC(C(=O)O)CS3)sc2c1 (stereo not shown) [methylbenzylaminoluciferin] was tested, and the light emission values (QuantiLum Luciferase; Derivative Conc. 1.07, Alone) was 25907602, the light emission values (QuantiLum Luciferase; Derivative Conc. 1.07, Co A) was 12863007 and the light emission values (QuantiLum Luciferase; Derivative Conc. 1.07, Co A + DTT) was 2037020. For the same molecule, the light emission values (QuantiLum Luciferase; Derivative Conc. 1.07, DTT) was 929977, the light emission values (QuantiLum Luciferase; Derivative Conc. 3.13, Alone) was 34516960 and the light emission values (QuantiLum Luciferase; Derivative Conc. 3.13, Co A) was 23501282. For the same molecule, the light emission values (QuantiLum Luciferase; Derivative Conc. 3.13, Co A + DTT) was 9404429, the light emission values (QuantiLum Luciferase; Derivative Conc. 3.13, DTT) was 8088743 and the light emission values (QuantiLum Luciferase; Derivative Conc. 6.25, Alone) was 43052788. For the same molecule, the light emission values (QuantiLum Luciferase; Derivative Conc. 6.25, Co A) was 35730272, the light emission values (QuantiLum Luciferase; Derivative Conc. 6.25, Co A + DTT) was 19738584 and the light emission values (QuantiLum Luciferase; Derivative Conc. 6.25, DTT) was 21756222. The light emission values (QuantiLum Luciferase; Derivative Conc. 12.5, Alone) was 50528576, the light emission values (QuantiLum Luciferase; Derivative Conc. 12.5, Co A) was 50418220 and the light emission values (QuantiLum Luciferase; Derivative Conc. 12.5, Co A + DTT) was 30367190. For the same molecule, the light emission values (QuantiLum Luciferase; Derivative Conc. 12.5, DTT) was 36663612, the light emission values (QuantiLum Luciferase; Derivative Conc. 25, Alone) was 61572912 and the light emission values (QuantiLum Luciferase; Derivative Conc. 25, Co A) was 63598896. The light emission values (QuantiLum Luciferase; Derivative Conc. 25, Co A + DTT) was 42613860, the light emission values (QuantiLum Luciferase; Derivative Conc. 25, DTT) was 50632712 and the light emission values (QuantiLum Luciferase; Derivative Conc. 50, Alone) was 73867336. It also gave a light emission values (QuantiLum Luciferase; Derivative Conc. 50, Co A) of 78390592, a light emission values (QuantiLum Luciferase; Derivative Conc. 50, Co A + DTT) of 47965140 and a light emission values (QuantiLum Luciferase; Derivative Conc. 50, DTT) of 54238960. For the same molecule, the light emission values (QuantiLum Luciferase; Derivative Conc. 100, Alone) was 85579872, the light emission values (QuantiLum Luciferase; Derivative Conc. 100, Co A) was 89117784 and the light emission values (QuantiLum Luciferase; Derivative Conc. 100, Co A + DTT) was 48409604. It also gave a light emission values (QuantiLum Luciferase; Derivative Conc. 100, DTT) of 50806656.
